In this experiment the target is peptidylglycine-α-amidizing monooxygenase (PAM) (Bos taurus, UniProt P10731). As to conditions: after 3 hours.

Where a SMILES comes first, the peptide text is derived from it. [ ]: non-standard residue; d: D form. The star is where a group is joined. Dansyl = CN(C)c1cccc2c(S(=O)(=O)*)cccc12

Chain of peptidylglycine-α-amidizing monooxygenase (PAM) (P10731 31-972): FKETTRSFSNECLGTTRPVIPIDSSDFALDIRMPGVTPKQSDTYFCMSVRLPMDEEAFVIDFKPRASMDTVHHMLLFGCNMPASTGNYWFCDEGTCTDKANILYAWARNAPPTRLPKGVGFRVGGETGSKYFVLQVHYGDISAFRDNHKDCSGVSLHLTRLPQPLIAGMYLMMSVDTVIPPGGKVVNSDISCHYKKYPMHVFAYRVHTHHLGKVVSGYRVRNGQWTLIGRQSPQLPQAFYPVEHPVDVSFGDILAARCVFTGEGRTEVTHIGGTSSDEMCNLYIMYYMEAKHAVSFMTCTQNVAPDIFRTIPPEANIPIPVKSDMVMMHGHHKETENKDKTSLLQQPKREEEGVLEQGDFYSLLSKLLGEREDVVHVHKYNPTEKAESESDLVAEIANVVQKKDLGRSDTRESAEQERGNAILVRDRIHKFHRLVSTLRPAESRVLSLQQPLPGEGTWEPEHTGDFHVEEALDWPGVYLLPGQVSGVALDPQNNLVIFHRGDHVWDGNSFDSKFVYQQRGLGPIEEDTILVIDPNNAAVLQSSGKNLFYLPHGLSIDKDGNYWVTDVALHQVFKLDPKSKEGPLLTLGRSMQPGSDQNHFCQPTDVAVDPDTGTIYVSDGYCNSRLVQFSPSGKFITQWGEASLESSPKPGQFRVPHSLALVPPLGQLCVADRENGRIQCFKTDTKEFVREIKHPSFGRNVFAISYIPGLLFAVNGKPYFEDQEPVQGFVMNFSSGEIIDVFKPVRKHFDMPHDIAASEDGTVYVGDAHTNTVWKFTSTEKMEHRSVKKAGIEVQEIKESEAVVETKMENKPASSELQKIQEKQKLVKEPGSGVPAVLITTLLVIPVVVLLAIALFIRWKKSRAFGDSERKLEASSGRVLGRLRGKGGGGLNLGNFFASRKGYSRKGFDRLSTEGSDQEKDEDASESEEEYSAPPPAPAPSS
Description: The tests with the substrate, according to the invention, of the formula I (R=Gly--OH) and with the comparison substance of the formula I (R=NH2) were carried out both with the crude fractions and also with the enriched fractions.
Procedure for enzyme assay using the substrate of the formula I (R=Gly--OH) and the reference substance of the formula II (R=NH2)
The enzyme tests are carried out in a buffer of pH 7.4. The aqueous buffer is composed of the buffer substance N-[tris-(hydroxymethyl)-methyl]-2-amino-ethanesulfonic acid (100 mM), CuSO4 (3 μM), peptide substrate of the formula I (R=Gly--OH) (50 μM) and catalase from bovine liver (100 μg/ml). 100 μl of this buffer solution are incubated with 100 μl of the solution containing PAM, and, after 3 hours at 37° C., the reaction is stopped by adding 700 μl of CH2 Cl2. […] After the mixture has been centrifuged and the organic phase removed, the latter is evaporated in a vacuum centrifuge and the residue is again taken up in a constant volume of CH2 Cl2. All operations are carried out with exclusion of light in order to prevent photo-reactions of the light-sensitive substrate. […] Quantification of the resulting amide of the formula I (R=NH2) by means of a thin layer scanner is made possible by simultaneously applying the peptide amide of the formula II in various concentrations as a reference.

For `C[C@@H](NS(=O)(=O)c1cccc2c(N(C)C)cccc12)C(=O)N1CCC[C@H]1C(=O)NCC(=O)O` [DIS-D-Ala--Pro--Gly--OH, DIS--D--Ala--Pro--Gly--OH] (Dansyl-[dA]-Pro-Gly-OH), the “Share of the substrate reacted” value is on record as “approx. 5%”.

Source of the values: patent US4900658A, “Chromophoric peptides for detecting peptidylglycine-α-amidizing monooxygenase” (Hoechst Aktiengesellschaft, priority 1986, dated 1990).
